This assay relates to Male Crl:CD-1 (ICR) BR mice. Nature of the assay: Radiant heat tail-flick assay after topical drug application to the tail. Type of assay: in vivo. The conditions noted are these: for topical analgesic effect (in words) / time of maximal analgesic effect after topical application / duration of analgesia: single drug; for topical analgesic effect (in words) / ED 50 value, propylene glycol alone / time of maximal analgesic effect after topical application / ED 50 value, propylene glycol and lauric acid: topical; for ED 50 value, propylene glycol alone / ED 50 value, propylene glycol and lauric acid: tail immersed 2 min, tested immediately afterward; for ED 50 value, propylene glycol alone: vehicle propylene glycol alone; for analgesia in % of mice: alone or together, 2 min; for duration of analgesia: FIG. 6: S-ibuprofen 4.8 mmol, diclofenac 3.5 mmol, 2 min exposure; for ED 50 value, propylene glycol and lauric acid: vehicle propylene glycol and lauric acid (10:1). As for the experimental part:
All in vivo studies were carried out in accordance with the Declaration of Helsinki and with the Guide for Care and Use of Laboratory Animals, as adopted and promulgated by the Estonian Põllumajandusministeerium. Male Crl:CD-1® (ICR) BR mice (20-25 g) were purchased from Charles River Laboratories (Germany) and were housed in a 12:12-h light-dark cycle temperature-controlled room with food and water freely available. Drugs were obtained from Sigma (St. Louis, Mo., USA). […] Briefly, the distal portion of the tail (2-3 cm) was immersed in a propylene glycol/dH2O (10:1 ratio) alone or propylene glycol and lauric acid combination (10:1) solution containing the indicated drugs for the stated time, usually 2 min.). Analgesia was defined quantitatively as tail-flick latency for an individual animal that was twice its baseline latency or greater using tail flick apparatus (Ugo Basile, Italy). […] ED50 values were determined with GraphPad Software.
In general terms: In hot-plate and tail-flick tests a longer latency is read as antinociception.

The mark [1] stands for this setting: FIG. 7A: morphine 0.15 mmol, diclofenac 0.9 mmol.
The mark [2] stands for this setting: FIG. 9A: methadone 0.7 mmol, diclofenac 0.9 mmol.
Where [3] appears, read: FIG. 10A: methadone 0.7 mmol, S-ibuprofen 1.2 mmol.
[4] abbreviates: FIG. 11B: hydrocodone 0.6 mmol, S-ibuprofen 1.2 mmol.

The structures appear in SMILES notation. “Also recorded” adds a separate entry of the source.

Consider `CCN(CC)CC(=O)Nc1c(C)cccc1C` [Lidocaine, lidocaine], for which the “topical analgesic effect (in words)” value was “no differences in ED50; also recorded: significant and long acting analgesic effects”; the “ED 50 value, propylene glycol alone” value stood at 2.2 mmol.
Take `CN1CC[C@]23c4c5ccc(O)c4O[C@H]2[C@@H](O)C=C[C@H]3[C@H]1C5` [Morphine, morphine]: the “ED 50 value, propylene glycol alone” value was 7.6 mmol. In addition, under setting [1], the “analgesia in % of mice” value came out at 20%.
On to `O=C(O)Cc1ccccc1Nc1c(Cl)cccc1Cl` [Diclofenac, diclofenac], for which the “time of maximal analgesic effect after topical application” value was 2 min; the “topical analgesic effect (in words)” value is “dose dependent analgesia”; the duration of analgesia came to 90 min; the “ED 50 value, propylene glycol alone” value worked out at 3.3 mmol. Further, the “ED 50 value, propylene glycol and lauric acid” value was 1.1 mmol. The “analgesia in % of mice” value under setting [1] turned out to be 30%. The “analgesia in % of mice” value under setting [2] is reported as 30%.
For `CCC(=O)C(CC(C)N(C)C)(c1ccccc1)c1ccccc1` (stereo not shown) [Methadone, methadone], the “dose response shift to left of ED50 on addition of lauric acid to propylene glycol” value is given as 6.7 fold; the “topical analgesic effect (in words)” value was “dose dependent (FIG. 4A) and naloxone sensitive”; the “ED 50 value, propylene glycol alone” value came to 6.7 mmol; the “ED 50 value, propylene glycol and lauric acid” value was determined as 1.0 mmol. In addition, the “analgesia in % of mice” value under setting [2] is given as 30%. Besides, the “analgesia in % of mice” value under setting [3] is given as 25%.
As to `CC(C)Cc1ccc([C@H](C)C(=O)O)cc1` [S-ibuprofen], the “time of maximal analgesic effect after topical application” value stood at 2 min; the “topical analgesic effect (in words)” value is listed as “dose dependent analgesia”; the duration of analgesia worked out at 90 min; the “ED 50 value, propylene glycol alone” value is reported as 9.3 mmol. Further, the “ED 50 value, propylene glycol and lauric acid” value worked out at 2.1 mmol. For the same molecule, the “analgesia in % of mice” value under setting [3] amounted to 30%. The “analgesia in % of mice” value under setting [4] is 30%.
Consider `COc1ccc2c3c1O[C@H]1C(=O)CC[C@H]4[C@@H](C2)N(C)CC[C@]314` [Hydrocodone, hydrocodone], for which the “topical analgesic effect (in words)” value was “most potent analgesic activity; also recorded: dose dependent response”; the “ED 50 value, propylene glycol alone” value came out at 1.6 mmol; the “ED 50 value, propylene glycol and lauric acid” value is recorded as 1.2 mmol. Besides, the “analgesia in % of mice” value under setting [4] was 20%.

The values above are taken from patent US20100143449A1, “ANALGESIC COMPOSITION OF TOPICALLY APPLIED NONSTEROIDAL ANTIINFLAMMATORY DRUGS AND OPIOIDS” (priority 2007, published 2010).
